From patent publication EP3287436B1, “COMPOUNDS AND COMPOSITIONS FOR USE IN THE TREATMENT OF BCAT1-MEDIATED DISEASES” (Ergon Pharmaceuticals LLC, priority 2016, dated 2018)

Assays:
[1] = test system: TGF-β1-stimulated human fibroblasts; experiment: Inhibition of collagen I production/secretion (ELISA of conditioned media); type: cell-based; conditions: for factor of increase of the collagen inhibitory activity: relative to compound 7; for concentration at which collagen I secretion is inhibited: summary of Table 3; for concentration at which collagen I secretion is completely inhibited: Table 2
Method: In vitro fibrosis is assessed by measuring collagen synthesis after treatment of fibroblast cells with a profibrotic stimuli such as TGF-β1 or bleomycin. Collagen secretion into the media can be quantified in conditioned media using an appropriate ELISA kit.
Confluent monolayers of human fibroblasts, plated onto duplicate 35 mm dishes, were pretreated with various concentrations of compounds 2, 6, and 7 for 30 min followed by stimulation of the cells with 7 ng/mL TGF-β1 for 48 hrs. At the end of the experiment, conditioned media were collected and assessed for the presence of secreted collagen I, whereas cells were collected and lysed. Collagen I secretion was quantified using an ELISA kit from R&D Systems per the manufacturer's instructions and expressed as arbitrary absorbance units per µg of cell lysate. In Table 2, results are shown as % Control Collagen Production, defined as the amount of collagen I secreted per µg of cell lysate from fibroblast cultures stimulated with TGF-β1 in the absence of an inhibitor. […]
Confluent monolayers of human fibroblasts, plated onto duplicate 35 mm dishes, were pretreated with various concentrations of compounds 28 and 29 and Control Collagen Production determined according to the protocol set out in Example 5. In Table 3, results are shown as % Control Collagen Production, defined as the amount of collagen I secreted per µg of cell lysate from fibroblast cultures stimulated with TGF-β1 in the absence of an inhibitor. […]

recombinant human BCAT1 = biological target: T1, recombinant human BCAT1 (Homo sapiens, UniProt P54687); experiment: Inhibition of BCAT1 enzymatic activity (NADH consumption, coupled leucine dehydrogenase assay); type: biochemical; conditions: for remaining activity at 0.001 µM: compound concentration 1 nM; for remaining activity at 0.01 µM: compound concentration 10 nM; for remaining activity at 0.1 µM: compound concentration 100 nM; for IC50: inhibition of the enzymatic activity of BCAT1, range stated for compounds 2, 7 and 8 together
T1 construct: purchased Abcam
T1 sequence (P54687 1-386): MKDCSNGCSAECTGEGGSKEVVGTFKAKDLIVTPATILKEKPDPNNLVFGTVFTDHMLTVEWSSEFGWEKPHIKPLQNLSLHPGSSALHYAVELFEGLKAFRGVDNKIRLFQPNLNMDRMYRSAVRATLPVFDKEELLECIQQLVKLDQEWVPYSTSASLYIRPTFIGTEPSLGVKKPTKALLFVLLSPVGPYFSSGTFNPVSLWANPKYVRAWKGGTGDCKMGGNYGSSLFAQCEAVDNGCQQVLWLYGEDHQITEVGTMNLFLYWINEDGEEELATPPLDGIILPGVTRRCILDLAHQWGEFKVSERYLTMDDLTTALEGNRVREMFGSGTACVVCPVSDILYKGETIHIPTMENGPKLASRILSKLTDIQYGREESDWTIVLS
Method: Inhibition of BCAT1 enzymatic activity by compounds 2. 7 and 8. The ability of the compounds as disclosed herein to inhibit BCAT1 enzymatic activity was confirmed spectrophotometrically. In this experiment, 0.2 to 0.5 µg of recombinant human BCAT1 from Abcam was added to 95 µL of a reaction buffer containing […] 5'-phosphate (PLP), 50 mM ammonium sulfate, 0.05 mM NADH, 5mM DTT, 5mM a-ketoglutarate, 10 mM leucine, and 0.95 U leucine dehydrogenase (EMD Chemicals) and various concentrations of compounds 2, 7 and 8. Addition of BCAT1 to the reaction mixture led to the consumption of NADH, which was measured fluorometrically (ex:330-370 nm; em:450 nm). The rate of change of fluorescence was then estimated over of period of 10 min (10 cycles; 1 cycle/min). The assay was performed in triplicate in a 96-well plate. In Table 1, the results were expressed as % Control Enzymatic Activity, which is defined as the BCAT1 activity observed in the reaction mixture in the absence of an inhibitor. […]

[2] = control = BCAT1 activity in the absence of an inhibitor
[3] = compound concentration 2 nM (as printed in Table 2), 30 min pretreatment, 7 ng/mL TGF-β1 for 48 hrs
[4] = compound concentration 5 nM (as printed in Table 2), 30 min pretreatment, 7 ng/mL TGF-β1 for 48 hrs
[5] = compound concentration 10 nM (as printed in Table 2), 30 min pretreatment, 7 ng/mL TGF-β1 for 48 hrs

Compound | factor of increase of the collagen inhibitory activity [1] | concentration at which collagen I secretion is inhibited [1] [mM] | remaining activity at 0.001 µM (recombinant human BCAT1; [2]) [%] | remaining activity at 0.01 µM (recombinant human BCAT1; [2]) [%] | remaining activity at 0.1 µM (recombinant human BCAT1; [2]) [%] | IC50 (recombinant human BCAT1) [nM] | concentration at which collagen I secretion is completely inhibited [1] [mM] | % Control Collagen Production [1, 3] [%] | % Control Collagen Production [1, 4] [%] | % Control Collagen Production [1, 5] [%] | other results
O=C(O)CCC(C(=O)c1ccc(Br)cc1)c1ccccc1 (centres unmarked) [Compound 29, 5-(4-bromophenyl)-5-oxo-4-phenylpentanoic acid] | 100 | 0.1 |  |  |  |  |  |  |  |  | % Control Collagen Production ([1]; compound concentration 0.01 mM (Table 3), protocol of Example 5): 88%; % Control Collagen Production ([1]; compound concentration 0.05 mM (Table 3), protocol of Example 5): 71%; % Control Collagen Production ([1]; compound concentration 0.1 mM (Table 3), protocol of Example 5): 8%
CC(=O)C(CCC(=O)O)c1ccccc1 (centres unmarked) [Compound 7, 5-oxo-4-phenylhexanoic acid] |  | 5 to 10 | 67 | 0 | 0 | 0.5 to 50 | 5 to 10 | 150 | 41 | 2 | 
CC(=O)C(C)CC(CCC#N)C(=O)O (centres unmarked) [Compound 8, 2-(2-cyanoethyl)-4-methyl-5-oxohexanoic acid] |  |  |  | 23 | 16 | 0.5 to 50 |  |  |  |  | remaining activity at 0.0005 µM (recombinant human BCAT1; compound concentration 0.5 nM, control = BCAT1 activity in the absence of an inhibitor): 47%
CC(=O)C(C)CC(Cc1ccccc1)C(=O)O (centres unmarked) [Compound 2, 2-benzyl-4-methyl-5-oxohexanoic acid] |  |  | 86 | 71 | 28 | 0.5 to 50 | 5 to 10 | 111 | 4 |  | 
CC(CCC(=O)O)C(=O)c1ccccc1 (centres unmarked) [Compound 6, 4-methyl-5-oxo-5-phenylpentanoic acid] |  |  |  |  |  |  | 5 to 10 | 105 | 77 | 2 | 
O=C(O)CCC(C(=O)c1ccccc1)c1ccccc1 (centres unmarked) [Compound 28, 5-oxo-4,5-diphenylpentanoic acid] | 2-5 | 2 |  |  |  |  |  |  |  |  | % Control Collagen Production ([1]; compound concentration 1 mM (Table 3), protocol of Example 5): 121%; % Control Collagen Production ([1]; compound concentration 2 mM (Table 3), protocol of Example 5): 18%; % Control Collagen Production ([1]; compound concentration 5 mM (Table 3), protocol of Example 5): 0%; % Control Collagen Production ([1]; compound concentration 10 mM (Table 3), protocol of Example 5): 0%
